Measurements from patent US8324227B2, “Thieno[2,3-D]-pyrimidin-4(3H)-one compounds with antifungal properties and process thereof” (FDC Limited, priority 2008, dated 2012).
Values after ≈ are worked out from the molar mass of the structure shown.

How the values were obtained:
Assay in all cases: Antifungal susceptibility, MIC by broth macro-dilution method
C. albicans (ATCC 24433) = assay type: cell-based, Candida albicans; details: end points after 48 hours, NI till x = no inhibition up to x; for MIC against fungi, C. albicans (ATCC 24433): RPMI 1640 medium with MOPS buffer; for MIC: Candida albicans, ATCC24433, RPMI 1640 medium with MOPS buffer, read-out: MIC against fungi, C. albicans (ATCC 24433)
Description: (§1) In vitro evaluation of antifungal activity was performed by determining the minimum inhibitory concentration (MIC). Anti-fungal susceptibility testing of these anti-fungal compounds was done by broth dilution method using RPMI 1640 medium with MOPS buffer. Known anti-fungal agents like fluconazole and amphotericin-B were used as positive control. End points were determined after 48 hours visually and by using spectrophotometer wherever necessary. Different dilutions were, tried and various sets of experiments performed.

A. niger (ATCC 16404) = assay type: cell-based, Aspergillus niger; details: end points after 48 hours, NI till x = no inhibition up to x; for MIC against fungi, A. niger (ATCC 16404): RPMI 1640 medium with MOPS buffer; for MIC: Aspergillus niger, ATCC16404, RPMI 1640 medium with MOPS buffer, read-out: MIC against fungi, A. niger (ATCC 16404)
Description: as §1

[1] = test system: F. proliferatum (ATCC 10052); assay type: cell-based, Fusarium proliferatum; details: end points after 48 hours, NI till x = no inhibition up to x; for MIC against fungi, F. proliferatum (ATCC 10052): RPMI 1640 medium with MOPS buffer; for MIC: Fusarium proliferatum, ATCC10052, RPMI 1640 medium with MOPS buffer, read-out: MIC against fungi, F. proliferatum (ATCC 10052)
Description: as §1

Compound | MIC against fungi, C. albicans (ATCC 24433) (C. albicans (ATCC 24433)) | MIC against fungi, A. niger (ATCC 16404) (A. niger (ATCC 16404)) | MIC against fungi, F. proliferatum (ATCC 10052) [1] | MIC (C. albicans (ATCC 24433)) [mg/L] | MIC (A. niger (ATCC 16404)) [mg/L] | MIC [1] [mg/L]
CC(C)(C)OC(=O)NCC(=O)OCCCCc1cc2c(=O)n(CC(O)(Cn3cncn3)c3ccc(F)cc3F)cnc2s1 (stereo not drawn) [Compound 1-A24, 3-[2-(2,4-Difluorophenyl)-2-hydroxy-3-[1,2,4]triazol-1-yl-propyl]-6-(4-N-Bocaminoacetyloxybutyl)-thieno[2,3-d]pyrimidin-4(3H)-one] | 0.5 to 1 mg/L | NI till 16 μg/ml | NI till 16 μg/ml | – | – | –
OC(Cn1cncn1)(Cn1cncn1)c1ccc(F)cc1F [Fluconazole, reference compound] | – | – | – | 0.25 to 1 (≈ 0.816 to 3.27 µM) | 64 to 128 (≈ 209 to 418 µM) | > 128
CCCc1cc2c(=O)n(CC(O)(Cn3cncn3)c3ccc(F)cc3F)cnc2s1 (stereo not drawn) [Compound 1-A18, 3-[2-(2,4-Difluorophenyl)-2-hydroxy-3-[1,2,4]-triazol-1-yl-propyl]-6-(n-propyl)-thieno[2,3-d]pyrimidin-4(3H)-one] | – | – | – | 0.06 to 0.12 (≈ 0.139 to 0.278 µM) | > 32 | > 32
O=c1c2c(CCc3ccccc3)csc2ncn1CC(O)(Cn1cncn1)c1ccc(F)cc1F (stereo not drawn) [Compound 1-A14, 3-[2-(2,4-Difluorophenyl)-2-hydroxy-3-[1,2,4]triazol-1-yl-propyl]-5(2-phenylethyl)-thieno[2,3-d]pyrimidin-4(3H)-one] | – | – | – | 0.5 to 1 (≈ 1.01 to 2.03 µM) | > 2 | > 2
CC(=O)OCCCCCCCc1cc2c(=O)n(CC(O)(Cn3cncn3)c3ccc(F)cc3F)cnc2s1 (stereo not drawn) [Compound 1-A12, 6-(7-Acetoxyheptyl)-3-[2-(2,4-difluorophenyl)-2-hydroxy-3-[1,2,4]-triazol-1-ylpropyl]-thieno[2,3-d]pyrimidin-4(3H)-one] | – | – | – | 0.12 to 0.25 (≈ 0.22 to 0.458 µM) | > 2 | > 2
CCCCCCCc1cc2c(=O)n(CC(O)(Cn3cncn3)c3ccc(F)cc3F)cnc2s1 (stereo not drawn) [Compound 1-A06, 3-[2-(2,4-Difluorophenyl)-2-hydroxy-3-[1,2,4]-triazol-1-yl-propyl]-6-n-heptylthieno[2,3-d]pyrimidin-4(3H)-one] | – | – | – | 0.06 to 0.12 (≈ 0.123 to 0.246 µM) | > 2 | > 2
O=c1c2c3c(sc2ncn1CC(O)(Cn1cncn1)c1ccc(F)cc1F)CCCCCCCCCC3 (stereo not drawn) [Compound 1-A19, 3-[2-(2,4-Difluorophenyl)-2-hydroxy-3-[1,2,4]-triazol-1-yl-propyl]3,5,6,7,8,9,10,11,12,13,14-undecahydrocyclododeca[4,5]thieno[2,3-d]pyrimidin-4(3H)-one] | NI till 2 μg/ml | NI till 2 μg/ml | NI till 2 μg/ml | – | – | –
NCC(=O)OCCCCc1cc2c(=O)n(CC(O)(Cn3cncn3)c3ccc(F)cc3F)cnc2s1 (stereo not drawn) [Compound 1-A25, 3-[2-(2,4-Difluorophenyl)-2-hydroxy-3-[1,2,4]-triazol-1-yl-propyl]-6-(4-aminoacetyloxybutyl)-thieno[2,3-d]pyrimidin-4(3H)-one] | – | – | – | 4 to 8 (≈ 7.71 to 15.4 µM) | > 8 | > 8
CCCCCc1sc2ncn(CC(O)(Cn3cncn3)c3ccc(F)cc3F)c(=O)c2c1C (stereo not drawn) [Compound 1-A11, 3-[2-(2,4-Difluorophenyl)-2-hydroxy-3-[1,2,4]triazol-1-yl-propyl]-5-methyl-6-npentyl-thieno[2,3-d]pyrimidin-4(3H)-one] | 1 to 2 mg/L | NI till 2 μg/ml | NI till 2 μg/ml | – | – | –
O=c1c2c3c(sc2ncn1CC(O)(Cn1cncn1)c1ccc(F)cc1F)CCCC3 (stereo not drawn) [Compound 1-A09, 3-[2-(2,4-Difluorophenyl)-2-hydroxy-3-[1,2,4]-triazol-1-yl-propyl]-5,6,7,8-tetrahydrobenzothieno[2,3-d]pyrimidin-4(3H)-one] | – | – | – | 0.25 to 0.5 (≈ 0.564 to 1.13 µM) | > 8 | > 8
CCCCCc1c(C)sc2ncn(CC(O)(Cn3cncn3)c3ccc(F)cc3F)c(=O)c12 (stereo not drawn) [Compound 1-A08, 3-[2-(2,4-Difluorophenyl)-2-hydroxy-3-[1,2,4]triazol-1-yl-propyl]-6-methyl-5-npentyl-thieno[2,3-d]pyrimidin-4(3H)-one] | 2 to 4 mg/L | NI till 4 μg/ml | NI till 4 μg/ml | – | – | –
CCc1cc2c(=O)n(CC(O)(Cn3cncn3)c3ccc(F)cc3F)cnc2s1 (stereo not drawn) [Compound 1-A22, 3-[2-(2,4-Difluorophenyl)-2-hydroxy-3-[1,2,4]triazol-1-yl-propyl]-6-ethylthieno[2,3-d]pyrimidin-4(3H)-one] | – | – | – | 0.06 to 0.12 (≈ 0.144 to 0.287 µM) | > 16 | > 16
Cc1cc2c(=O)n(CC(O)(Cn3cncn3)c3ccc(F)cc3F)cnc2s1 (stereo not drawn) [Compound 1-A28, 3-[2-(2,4-Difluorophenyl)-2-hydroxy-3-[1,2,4]-triazol-1-yl-propyl]-6-methylthieno[2,3-d]pyrimidin-4(3H)-one] | – | – | – | 0.25 to 0.5 (≈ 0.62 to 1.24 µM) | > 64 | > 64
CCCCCc1cc2c(=O)n(CC(O)(Cn3cncn3)c3ccc(F)cc3F)cnc2s1 (stereo not drawn) [Compound 1-A04, 3-[2-(2,4-Difluorophenyl)-2-hydroxy-3-[1,2,4]-triazol-1-yl-propyl]-6-n-pentylthieno[2,3-d]pyrimidin-4(3H)-one] | – | – | – | 0.03 to 0.06 (≈ 0.0653 to 0.131 µM) | > 4 | > 4
O=c1c2cc(CCCCOCc3ccccc3)sc2ncn1CC(O)(Cn1cncn1)c1ccc(F)cc1F (stereo not drawn) [Compound 1-A01, 6-(4-Benzyloxybutyl)-3-[2-(2,4-difluorophenyl)-2-hydroxy-3-[1,2,4]triazol-1-ylpropyl]-thieno[2,3-d]pyrimidin-4(3H)-one] | – | – | – | 0.06 to 0.12 (≈ 0.109 to 0.218 µM) | > 4 | > 4
CCCCc1c(CCC)sc2ncn(CC(O)(Cn3cncn3)c3ccc(F)cc3F)c(=O)c12 (stereo not drawn) [Compound 1-A05, 5-n-Butyl-3-[2-(2,4-difluorophenyl)-2-hydroxy-3-[1,2,4]-triazol-1-yl-propyl]-6-n-propyl-thieno[2,3-d]pyrimidin-4(3H)-one] | – | – | – | 2 to 4 (≈ 4.1 to 8.2 µM) | > 4 | > 4
O=c1c2c3c(sc2ncn1CC(O)(Cn1cncn1)c1ccc(F)cc1F)CCC3 (stereo not drawn) [Compound 1-A07, 3-[2-(2,4-Difluorophenyl)-2-hydroxy-3-[1,2,4]-triazol-1-yl-propyl]-3,5,6,7-tetrahydrocyclopenta[4,5]thieno[2,3-d]pyrimidin-4(3H)-one] | 0.25 to 0.5 mg/L | NI till 2 μg/ml | NI till 2 μg/ml | – | – | –
CCCCCCCCCCc1cc2c(=O)n(CC(O)(Cn3cncn3)c3ccc(F)cc3F)cnc2s1 (stereo not drawn) [Compound 1-A16, 6-n-Decyl-3-[2-(2,4-difluorophenyl)-2-hydroxy-3-[1,2,4]triazol-1-yl-propyl]thieno[2,3-d]pyrimidin-4(3H)-one] | – | – | – | 1 to 2 (≈ 1.89 to 3.78 µM) | > 2 | > 2
O=c1c2cc(CCCCCCCO)sc2ncn1CC(O)(Cn1cncn1)c1ccc(F)cc1F (stereo not drawn) [Compound 1-A13, 3-[2-(2,4-Difluorophenyl)-2-hydroxy-3-[1,2,4]triazol-1-yl-propyl]-6-(7-hydroxyheptyl)-thieno[2,3-d]pyrimidin-4(3H)-one] | – | – | – | 0.12 to 0.25 (≈ 0.238 to 0.496 µM) | > 16 | > 16
